# From ChEMBL document CHEMBL1201862, “PubChem BioAssay data set” (2004)
# The source made the active and inactive calls.
# Tests used:
# [1] = molecular target: Beta-2 adrenergic receptor (Homo sapiens, UniProt P07550); test: ADRB2 activation measured by internalization – cell-based, FAP fluorogen, flow cytometry, cherry pick 1, dose response (AID 588763); type: functional
# [2] = molecular target: T1, Hexokinase HKDC1 (Homo sapiens, UniProt Q2TB90); test: SAR analysis of small molecule inhibitors of hexokinase domain containing I (HKDC1). [Related pubchem assays (depositor defined):AID493160, AID493190]; type: functional
# T1 sequence (Q2TB90 whole entry): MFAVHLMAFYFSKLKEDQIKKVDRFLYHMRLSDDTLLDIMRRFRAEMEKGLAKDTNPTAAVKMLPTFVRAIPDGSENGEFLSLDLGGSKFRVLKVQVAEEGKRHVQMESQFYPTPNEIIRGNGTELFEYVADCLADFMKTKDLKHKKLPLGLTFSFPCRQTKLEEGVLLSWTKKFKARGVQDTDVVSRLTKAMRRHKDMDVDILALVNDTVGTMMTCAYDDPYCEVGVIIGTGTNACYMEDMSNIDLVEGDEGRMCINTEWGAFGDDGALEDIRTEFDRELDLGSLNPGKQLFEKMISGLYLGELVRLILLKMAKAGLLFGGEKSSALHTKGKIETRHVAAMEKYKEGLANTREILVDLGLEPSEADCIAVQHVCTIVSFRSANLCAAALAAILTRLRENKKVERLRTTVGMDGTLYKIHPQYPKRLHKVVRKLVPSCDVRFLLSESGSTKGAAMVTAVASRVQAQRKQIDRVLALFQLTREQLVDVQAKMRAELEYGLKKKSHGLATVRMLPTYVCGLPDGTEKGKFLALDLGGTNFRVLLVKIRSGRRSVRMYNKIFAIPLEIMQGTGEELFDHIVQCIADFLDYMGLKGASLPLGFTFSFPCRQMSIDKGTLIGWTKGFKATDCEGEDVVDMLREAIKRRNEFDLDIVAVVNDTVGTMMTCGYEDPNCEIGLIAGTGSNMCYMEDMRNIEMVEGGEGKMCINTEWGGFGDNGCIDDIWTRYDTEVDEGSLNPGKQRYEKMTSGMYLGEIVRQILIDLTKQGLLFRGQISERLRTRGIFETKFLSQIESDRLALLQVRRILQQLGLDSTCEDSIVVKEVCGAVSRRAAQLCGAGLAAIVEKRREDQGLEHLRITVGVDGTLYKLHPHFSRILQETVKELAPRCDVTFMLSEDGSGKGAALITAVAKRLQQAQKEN
# [3] = molecular target: T2, Hexokinase-1 (Homo sapiens, UniProt P19367); test: SAR analysis of small molecule inhibitors of hexokinase domain containing I (HKDC1) in the hexokinase 1 selectivity assay. [Related pubchem assays (depositor defined):AID493160, AID493190]; type: functional
# T2 sequence (P19367 whole entry): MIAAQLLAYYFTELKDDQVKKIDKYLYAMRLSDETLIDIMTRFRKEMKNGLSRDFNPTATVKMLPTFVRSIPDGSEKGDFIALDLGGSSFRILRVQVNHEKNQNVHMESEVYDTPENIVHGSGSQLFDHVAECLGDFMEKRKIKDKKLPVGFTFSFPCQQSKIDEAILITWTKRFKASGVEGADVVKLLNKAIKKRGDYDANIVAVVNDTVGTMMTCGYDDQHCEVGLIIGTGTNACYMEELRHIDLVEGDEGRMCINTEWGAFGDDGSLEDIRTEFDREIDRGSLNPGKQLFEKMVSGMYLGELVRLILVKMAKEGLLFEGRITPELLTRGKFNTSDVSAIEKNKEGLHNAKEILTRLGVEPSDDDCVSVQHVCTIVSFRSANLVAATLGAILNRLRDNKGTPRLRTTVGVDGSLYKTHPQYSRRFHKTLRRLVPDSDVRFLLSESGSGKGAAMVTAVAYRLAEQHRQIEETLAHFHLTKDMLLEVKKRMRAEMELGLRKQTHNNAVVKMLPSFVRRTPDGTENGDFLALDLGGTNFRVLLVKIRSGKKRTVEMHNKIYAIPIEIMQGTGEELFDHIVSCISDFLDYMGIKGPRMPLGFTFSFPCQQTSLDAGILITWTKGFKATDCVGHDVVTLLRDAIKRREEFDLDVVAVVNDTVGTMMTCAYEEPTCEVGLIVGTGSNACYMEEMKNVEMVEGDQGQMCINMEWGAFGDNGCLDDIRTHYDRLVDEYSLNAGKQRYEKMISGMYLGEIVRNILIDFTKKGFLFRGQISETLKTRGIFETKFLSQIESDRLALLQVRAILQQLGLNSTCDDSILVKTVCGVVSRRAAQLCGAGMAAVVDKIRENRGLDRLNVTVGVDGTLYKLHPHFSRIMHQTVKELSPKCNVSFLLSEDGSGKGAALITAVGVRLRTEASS
# [4] = cells; type: functional, cell-based
# [5] = molecular target: Cytochrome P450 2D6 (Homo sapiens, UniProt P10635)
# [6] = molecular target: Cytochrome P450 2C19 (Homo sapiens, UniProt P33261); test: Cytochrome panel assay with activity outcomes. Panel member name: p450-cyp2c19 Compounds with AC50 equal or less than 10 uM are considered active; type: functional; conditions: read-out: AC50
# [7] = cells; type: functional, cell-based; remark: listed apart in the source
# [8] = molecular target: Latent membrane protein 1 (Human herpesvirus 4 (strain B95-8), UniProt P03230); test: LMP1 TES1 pathway selectivity over dsRED control – imaging, HEK293T, dual-color eGFP/dsRED, cherry-picks, selectivity assay for LMP1 NF-kB inhibitor project, dose response (AID 588398); type: functional, cell-based
# [9] = molecular target: T3, Corticotropin-releasing factor receptor 2/Corticotropin-releasing factor-binding protein (Homo sapiens, UniProt P24387+Q13324); test: activators of CRF receptor 2 with binding protein – uHTS hits, confirmation (AID 602473); type: functional; conditions: read-out: EC50_Mean
# T3 sequence (Q13324 whole entry): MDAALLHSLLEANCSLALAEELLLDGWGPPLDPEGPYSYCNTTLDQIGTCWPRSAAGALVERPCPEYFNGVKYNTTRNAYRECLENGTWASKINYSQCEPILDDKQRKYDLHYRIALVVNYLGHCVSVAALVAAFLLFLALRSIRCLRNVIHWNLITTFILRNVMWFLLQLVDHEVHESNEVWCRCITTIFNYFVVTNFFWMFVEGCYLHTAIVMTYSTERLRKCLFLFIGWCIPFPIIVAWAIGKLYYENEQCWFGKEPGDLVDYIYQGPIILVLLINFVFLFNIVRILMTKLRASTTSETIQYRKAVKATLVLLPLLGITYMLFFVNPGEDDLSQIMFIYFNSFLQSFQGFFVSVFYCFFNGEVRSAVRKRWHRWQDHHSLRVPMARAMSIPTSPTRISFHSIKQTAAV
# T3 sequence (P24387 whole entry): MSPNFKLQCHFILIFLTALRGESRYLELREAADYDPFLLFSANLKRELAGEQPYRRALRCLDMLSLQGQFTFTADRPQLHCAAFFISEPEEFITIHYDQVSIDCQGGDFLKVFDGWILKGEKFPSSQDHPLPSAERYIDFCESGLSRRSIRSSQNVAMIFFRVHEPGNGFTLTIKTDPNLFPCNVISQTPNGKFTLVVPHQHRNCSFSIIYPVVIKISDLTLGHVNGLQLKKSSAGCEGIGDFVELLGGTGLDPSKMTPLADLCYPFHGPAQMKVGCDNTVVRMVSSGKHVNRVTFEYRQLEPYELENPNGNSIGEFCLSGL
# [10] = test system: HEK293; test: EBV LMP1 TES2 canonical NF-kB signalling blockers – cell-based, HEK293, luciferase, cherry-pick, dose response (AID 588343); type: functional; conditions: Homo sapiens
# [11] = decrease of insulin promoter-GFP reporter – imaging, high-content screening, mouse beta cells (AID 1628); type: functional; conditions: MIN6
# [12] = luciferase reporter signal suppression in cells – H4 neuroglioma cells, luminescence, dose response (AID 1990); type: functional, cell-based
# [13] = alpha-synuclein stem-loop luciferase translation blockers – H4 neuroglioma cells, luminescence, confirmation (AID 1988); type: functional, cell-based
# [14] = test system: INS1; test: INS-1E survival protection against cytokine death – cell-based, luminescence, retest, dose response (AID 449756); type: functional; conditions: Rattus norvegicus;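 also: cell death triggered by IL-1 beta plus TNF-alpha plus IFN-gamma mixture; protective hits raise ATP signal compared with cytokine alone wells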
# [15] = MIN6 cell viability loss – mouse insulinoma, cytotoxicity control, dose response (AID 2122); type: functional;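 also: confirmatory high-throughput counterscreen run to flag cytotoxic compounds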
# [16] = Luminescence Cell-Based Dose Response HTS to Identify Inhibitors of 5'UTR Stem-Loop Driven Prion Protein mRNA Translation in H4 Neuroglioblastoma Cells. [Related pubchem assays: 1827 (Project Summary), 1813 (Primary HTS)]; type: functional
# [17] = molecular target: T4, Heat shock factor protein 1 (Mus musculus, UniProt P38532); test: decrease of HSF1-responsive luciferase luminescence – cell-based, NIH3T3, dose retest, confirmation (AID 2382); type: functional;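 also: NIH3T3 fibroblasts with HSF1-driven luciferase reporter stressed by proteasome inhibitor MG132; luminescence from HSF1-driven luciferase expression after 8 hours of MG132 stress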
# T4 sequence (P38532 whole entry): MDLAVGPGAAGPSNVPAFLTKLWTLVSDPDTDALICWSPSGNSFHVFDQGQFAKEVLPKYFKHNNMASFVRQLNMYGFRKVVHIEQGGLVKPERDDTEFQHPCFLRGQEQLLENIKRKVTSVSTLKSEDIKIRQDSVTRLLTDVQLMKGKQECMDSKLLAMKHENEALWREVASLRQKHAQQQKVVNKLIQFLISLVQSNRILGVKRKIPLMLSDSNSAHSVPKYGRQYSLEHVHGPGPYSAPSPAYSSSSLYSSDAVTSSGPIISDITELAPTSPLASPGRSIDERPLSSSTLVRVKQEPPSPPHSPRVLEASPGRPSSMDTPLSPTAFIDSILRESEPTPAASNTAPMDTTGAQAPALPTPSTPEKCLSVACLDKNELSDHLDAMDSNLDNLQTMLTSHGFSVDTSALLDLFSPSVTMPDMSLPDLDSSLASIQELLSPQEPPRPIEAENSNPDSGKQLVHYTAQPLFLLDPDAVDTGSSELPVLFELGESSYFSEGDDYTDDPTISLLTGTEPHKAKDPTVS
# Sequence of Latent membrane protein 1 (P03230 whole entry): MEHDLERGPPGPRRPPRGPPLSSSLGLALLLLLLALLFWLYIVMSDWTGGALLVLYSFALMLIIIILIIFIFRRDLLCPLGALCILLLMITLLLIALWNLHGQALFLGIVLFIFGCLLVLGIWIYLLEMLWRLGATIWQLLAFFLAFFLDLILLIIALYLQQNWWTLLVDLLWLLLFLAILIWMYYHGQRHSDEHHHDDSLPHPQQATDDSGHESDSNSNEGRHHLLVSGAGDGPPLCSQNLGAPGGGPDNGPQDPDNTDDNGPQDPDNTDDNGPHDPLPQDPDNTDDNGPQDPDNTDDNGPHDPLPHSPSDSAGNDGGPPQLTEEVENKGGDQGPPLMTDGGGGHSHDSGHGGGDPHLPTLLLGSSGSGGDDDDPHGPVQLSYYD
# Sequence of Beta-2 adrenergic receptor (P07550 whole entry, the tested form may be a part): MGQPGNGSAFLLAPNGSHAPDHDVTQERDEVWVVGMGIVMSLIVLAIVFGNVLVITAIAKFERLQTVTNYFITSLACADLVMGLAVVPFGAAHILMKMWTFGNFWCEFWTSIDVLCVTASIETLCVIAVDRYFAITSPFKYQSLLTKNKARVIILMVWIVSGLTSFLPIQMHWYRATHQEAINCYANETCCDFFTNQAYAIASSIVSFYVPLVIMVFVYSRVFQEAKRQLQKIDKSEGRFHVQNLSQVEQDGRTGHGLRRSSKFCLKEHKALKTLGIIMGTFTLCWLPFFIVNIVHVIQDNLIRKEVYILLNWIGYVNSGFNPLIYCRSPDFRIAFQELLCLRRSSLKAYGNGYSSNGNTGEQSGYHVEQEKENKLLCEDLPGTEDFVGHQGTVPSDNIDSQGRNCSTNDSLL
# Sequence of Cytochrome P450 2C19 (P33261 whole entry): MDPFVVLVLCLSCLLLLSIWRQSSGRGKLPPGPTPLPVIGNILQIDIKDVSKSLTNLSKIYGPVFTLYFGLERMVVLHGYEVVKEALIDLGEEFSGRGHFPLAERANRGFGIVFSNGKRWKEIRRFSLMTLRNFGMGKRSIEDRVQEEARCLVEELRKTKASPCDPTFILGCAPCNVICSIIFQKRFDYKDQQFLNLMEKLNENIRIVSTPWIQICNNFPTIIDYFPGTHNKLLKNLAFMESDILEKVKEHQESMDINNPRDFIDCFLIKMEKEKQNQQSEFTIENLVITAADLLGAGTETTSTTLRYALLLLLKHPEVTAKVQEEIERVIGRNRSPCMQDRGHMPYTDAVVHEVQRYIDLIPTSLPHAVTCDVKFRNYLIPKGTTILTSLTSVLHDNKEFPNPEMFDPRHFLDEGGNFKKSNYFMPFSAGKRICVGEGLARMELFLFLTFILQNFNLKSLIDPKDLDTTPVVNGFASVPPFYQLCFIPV
# Sequence of Cytochrome P450 2D6 (P10635 whole entry): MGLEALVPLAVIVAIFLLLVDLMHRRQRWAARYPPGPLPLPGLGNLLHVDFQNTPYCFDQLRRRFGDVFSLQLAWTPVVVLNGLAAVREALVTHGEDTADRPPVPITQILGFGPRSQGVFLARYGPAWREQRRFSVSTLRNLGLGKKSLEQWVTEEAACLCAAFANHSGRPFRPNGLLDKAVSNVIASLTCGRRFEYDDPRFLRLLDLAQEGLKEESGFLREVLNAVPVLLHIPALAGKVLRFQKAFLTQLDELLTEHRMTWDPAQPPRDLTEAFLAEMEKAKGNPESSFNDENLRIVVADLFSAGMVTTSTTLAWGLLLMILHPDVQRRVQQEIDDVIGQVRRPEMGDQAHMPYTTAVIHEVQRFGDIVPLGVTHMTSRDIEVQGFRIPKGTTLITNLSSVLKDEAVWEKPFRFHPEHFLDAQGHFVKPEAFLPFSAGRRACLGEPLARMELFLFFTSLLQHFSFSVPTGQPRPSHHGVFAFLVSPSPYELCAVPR
smiles,measurement,setting,value
C=CCn1c(CCNC(=O)c2cccs2)nnc1SCC(=O)c1cccc([N+](=O)[O-])c1,EC50,[1],0.133 µM (active)
Cc1ccc(/C=C/c2nc3ccccc3c(=O)n2CCc2ccccc2)cc1,IC50,[2],> 80 µM (inactive)
same,IC50,[3],> 80 µM (inactive)
COc1ccccc1-c1cc(C(F)(F)F)nc(S(=O)(=O)CCCC(=O)NC(C)C)n1,EC50,[1],9.33 µM (active)
same,EC50,[4],> 350 µM (not active)
same,AC50,[5],inconclusive
same,AC50,[6],6.31 µM (inconclusive)
same,EC50,[7],51.6 µM (active)
O=c1c([N+](=O)[O-])cn(Cc2ccccc2)c(=O)n1Cc1ccccc1,AC50,[8],108 µM (active)
same,EC50,[9],> 53 µM (inactive)
O=C(N/N=C/c1ccc[nH]1)c1ccc(COc2cccc3cccnc23)cc1,AC50,[10],6.13 µM (active)
same,IC50,[11],0.65 µM (active)
same,EC50,[12],8.34 µM (active)
same,AC50,[8],9.15 µM (active)
same,EC50,[13],9.79 µM (active)
same,AC50,[14],1.05 µM (active)
same,IC50,[15],0.574 µM (active)
same,EC50,[16],> 120 µM (not active)
same,EC50,[17],0.16 µM (active)
